Experimental data from US7638510B2, “Use of s-10-hydroxy-10,11-dihydro-carbamazepine for the treatment of anxiety and bipolar disorders” (Novartis AG, priority 2003, dated 2009).

Test system: rat
Assay: Vogel conflict test (punished drinking)
Format: in vivo
Conditions: for PUNISHED DRINKING (number of shocks) mean ± s.e.m.: 3 minute period; for PUNISHED DRINKING % change from control: vs vehicle; for efficacy compared between racemate and enantiomers: 50-200 mg/kg p.o.; for efficacy compared with the positive control clobazam: 50-200 mg/kg p.o. vs clobazam 64 mg/kg
Protocol: a) Description of method: The method, which detects anxiolytic and related other psychiatric activity, follows that described by Vogel et al, Psychopharmacologia 1971; 21:1-7 Anxiolytics and antidepressants (e.g., Fontana et al., Psychopharmacology 1989; 98(2):157-62) of various classes increase punished drinking.
Rats are deprived of water for 48 hours and are then placed individually into a transparent Plexiglas enclosure (15×32×34 cm) with a floor consisting of stainless steel bars (0.4 cm) spaced 1 cm apart The back wall of the enclosure is made of opaque Plexiglass thereby concealing the observer from the experimental animal. In the centre of the opposite wall, 5 cm above the floor, a metal water spout protrudes into the cage and is connected to one pole of a shock generator (Apelex: Type 011346). The other pole of the shock generator is connected to the metal grid floor. The rat is left to explore until it found the water spout. Then, every time it drinks, it receives a slight electric shock (1.7 mA, 1 sec.) 2 seconds after it starts lapping. The number of shocks received (punished drinkings) is counted during a 3 minute period. 15 rats are studied per group. The test is performed blind. Compounds are evaluated at 50, 100 and 200 mg/kg, administered p.o. 60 minutes before the test, and compared with a vehicle control group. Clobazam (64 mg/kg), administered under the same experimental conditions, is used as reference substance. All substances are evaluated within the same experiment and compared with the same vehicle and reference substance controls. Data are analyzed by comparing treated groups with vehicle control using unpaired Student's t tests.

Compound	PUNISHED DRINKING (number of shocks) mean ± s.e.m. (64 mg/kg p.o. -60 min)	PUNISHED DRINKING % change from control (64 mg/kg p.o. -60 min)	PUNISHED DRINKING (number of shocks) mean ± s.e.m. (50 mg/kg p.o. -60 min)	PUNISHED DRINKING % change from control (50 mg/kg p.o. -60 min)	PUNISHED DRINKING (number of shocks) mean ± s.e.m. (100 mg/kg p.o. -60 min)	PUNISHED DRINKING % change from control (100 mg/kg p.o. -60 min)	PUNISHED DRINKING (number of shocks) mean ± s.e.m. (200 mg/kg p.o. -60 min)	PUNISHED DRINKING % change from control (200 mg/kg p.o. -60 min)	efficacy compared between racemate and enantiomers	efficacy compared with the positive control clobazam
CN1C(=O)CC(=O)N(c2ccccc2)c2cc(Cl)ccc21 [CLOBAZAM, Clobazam, reference compound]	8.2 ± 1.1 number of shocks	+86%	–	–	–	–	–	–	–	–
NC(=O)N1c2ccccc2CC(O)c2ccccc21 (racemic) [M3, 10-hydroxy-10,11-dihydro-carbamazepine]	–	–	5.9 ± 0.5 number of shocks	+34%	8.4 ± 1.0 number of shocks	+91%	10.4 ± 1.5 number of shocks	+136%	between that of the R- and S-enantiomers	–
NC(=O)N1c2ccccc2C[C@@H](O)c2ccccc21 [M4, R(−)-10,11-dihydro-10-hydroxy-5H-dibenzo[b,f]azepine-5-carboxamide]	–	–	5.0 ± 0.4 NS number of shocks	+14%	5.5 ± 0.5 NS number of shocks	+25%	7.4 ± 1.3 number of shocks	+68%	less efficacious than the S-enantiomer at the lowest dose used	less than that of the positive control
NC(=O)N1c2ccccc2C[C@H](O)c2ccccc21 [M5, S(+)-10,11-dihydro-10-hydroxy-5H-dibenzo[b,f]azepine-5-carboxamide]	–	–	8.4 ± 1.3 number of shocks	+91%	9.5 ± 1.0 number of shocks	+116%	10.5 ± 1.3 number of shocks	+139%	–	surpasses that of clobazam at all doses tested
